Tests used:
[1] = tested on: Saccharomyces cerevisiae MP1; experiment: Recombination / mutation experiments with yeast; type: cell-based; conditions: for anti-recombinogenic effects in Saccharomyces cerevisiae MP1: FIGS. 11 and 12
[2] = tested on: SV40-DNA amplification in SV40 transformed embryonic CO631 hamster cells; experiment: SV40-DNA gene amplification system in SV40-transformed hamster cells; type: cell-based, Chinese Hamster; conditions: for effect on SV40 gene amplification: model substance given alone, FIGS. 1 to 3
From the text: To investigate the amplification phenomena, a hamster cell strain is used which contains a virus (simian virus 40) integrated in the genome. It is known for this cell strain that an addition of genotoxic substances, but also various “non-genotoxic” carcinogens and tumor inducers, leads to amplification of SV40-DNA in the hamster genome. The method is based on the fact that marked SV40-DNA with hamster cell-DNA containing SV40-DNA in an amplified number, serving as a probe, is hybridized. The quantity of bound probe gives an insight into the degree of amplification of the integrated virus-DNA.
In order to determine the degree of amplification, the albumin-gene-DNA is measured simultaneously with the SV40-DNA. The albumin-gene, as opposed to SV40-DNA, is not amplified in the cell. Accordingly the value of the relative SV40-DNA content results from the quotient of the signal of the DNA probe hybridized with SV40-DNA to the signal of the DNA probe hybridized with albumin gene from the same SV40 transformed embryonic CO631 hamster cells.
The effect of the above named model substances alone or in combination with a carcinogen is tested in the gene amplification system.

[3] = tested on: tumor cell strain F46-WT of the mouse
Procedure: The formation of resistance is based on the amplification of the MDR gene. This is indicated with the aid of the Northern Blotting Technique, a method for indicating RNA molecules, i.e., the transcription of a gene, using the MDR gene as a probe (FIG. 10).
The tumor cell strain F4-6-WT of the mouse (WT=wild type=sensitive to cytostatic treatment=no amplification of the MDR gene) is treated over several weeks with staged increases in concentration of adriamycin. […] The formation of resistance is based on the amplification of the MDR gene. This is indicated with the aid of the Northern Technique, a method for indicating RNA molecules, i.e., the transcription of a gene, using the MDR gene as a probe (FIG. 15). […] The levels of β-actin MRNA are likewise analyzed as comparison. β-actin is used as an internal control for the RNA quantity.
In parallel experiments, adriamycin is administered with 1 μg/ml of a respective 5′ substituted nucleoside.

MDR gene in F46-WT cells = experiment: Northern Blot analysis of RNA with the MDR gene as probe; type: cell-based, mouse; conditions: BVDU+adriamycin treatment, FIG. 10
From the text: Expression of the MDR genes in the tumor cell strain F4-6WT of the mouse.

[4] = tested on: human tumor cell strain K562-WT; conditions: FIG. 8

O=c1[nH]c(=O)n([C@@H]2O[C@H](CO)[C@@H](O)[C@@H]2O)cc1/C=C/Br [(E)-5-(2-bromovinyl)-1-β-D-arabinofuranosyl-uracil]
anti-recombinogenic effects in Saccharomyces cerevisiae MP1 [1]: anti-recombinogenic effects

Nc1nc(=O)n([C@H]2C[C@H](O)[C@@H](CO)O2)cc1I [5-iodo-2′-deoxycytidine]
anti-recombinogenic effects in Saccharomyces cerevisiae MP1 [1]: anti-recombinogenic effects

CN(C)C=O [dimethylfornamide, dimethylformamide]
effect on SV40 gene amplification [2]: no effect

O=c1[nH]c(=O)n([C@H]2C[C@H](O)[C@@H](CO)O2)cc1I [5-iodo-2′-deoxyuridine]
anti-recombinogenic effects in Saccharomyces cerevisiae MP1 [1]: anti-recombinogenic effects

C=C(C)[C@@]12O[C@@]3(c4ccccc4)O[C@@H]1[C@@H]1[C@@H]4O[C@]4(CO)[C@@H](O)[C@]4(O)C(=O)C(C)=C[C@H]4[C@@]1(O3)[C@H](C)[C@H]2OC(=O)/C=C/C=C/c1ccccc1 [mezerein]
effect on SV40 gene amplification [2]: increase the SV40 gene amplification

CC(=N)S [thioacetamide]
effect on SV40 gene amplification [2]: increase the SV40 gene amplification

O=c1[nH]c(=O)n([C@H]2C[C@H](O)[C@@H](CO)O2)cc1/C=C/Br [BVDU, (E)-5-(2-bromovinyl-)2′-deoxyuridine]
anti-recombinogenic effects in Saccharomyces cerevisiae MP1 [1]: anti-recombinogenic effects
effect on mutation in yeast ([1]; with and without S9-mix, FIG. 4): co-mutagenic
effect on recombination in yeast ([1]; with and without liver microsomes (S9-mix), more visible and at lower concentration with S9-mix, FIG. 4): anti-recombinogenic
effect on spontaneous degree of amplification ([2]; BVDU alone, repeat experiment, FIG. 6): slightly to lessen the spontaneous degree of amplification
effect on AMP-induced gene amplification ([2]; with S9-mix, lower dose range than without S9-mix, FIG. 7): lowering of AMP-induced gene amplification
concentration at which inhibition of AMP-induced gene amplification starts ([2]; without S9-mix, FIG. 5): about 0.05 μg/ml
concentration leading to total inhibition of the AMP-induced gene amplification ([2]; without S9-mix, dose dependent, FIG. 5): 5 µg/mL
formation of resistance to adriamycin ([3]; 0.5 or 1 μg/ml BVDU given together with adriamycin, F46-WT, 6 to 8 weeks, FIG. 9): prevents the formation of resistance to adriamycin
concentration from which BVDU acts in a toxic manner ([3]; mouse cells, FIG. 9): about 8 μg/ml
amplification of the MDR gene compared with adriamycin treatment alone (MDR gene in F46-WT cells): considerably weaker amplification of the MDR gene
formation of resistance to adriamycin ([4]; 0.5 or 1 μg/ml BVDU given together with adriamycin, K562-WT, 6 to 8 weeks): prevents the formation of resistance to adriamycin
concentration from which BVDU acts in a toxic manner ([4]; human tumor cells): about 10 μg/ml

CC(N)=O [acetamide]
effect on SV40 gene amplification [2]: increase the SV40 gene amplification

O=c1[nH]c(=O)n([C@H]2C[C@H](O)[C@@H](CO)S2)cc1/C=C/Br [(E)-5(2-bromovinyl-2′-deoxy-4′-thiouridine]
anti-recombinogenic effects in Saccharomyces cerevisiae MP1 [1]: anti-recombinogenic effects

CC(C)=O [acetone]
effect on SV40 gene amplification [2]: no effect

C1CN1c1nc(N2CC2)nc(N2CC2)n1 [TEM, Triethylenmelamin]
effect on SV40 gene amplification [2]: increase the SV40 gene amplification

O=c1ccc2ccccc2o1 [coumarin]
effect on SV40 gene amplification [2]: increase the SV40 gene amplification

CCCCCCCCCCCCCC(=O)O[C@@H]1[C@@H](C)[C@@]2(O)[C@@H](C=C(CO)C[C@]3(O)C(=O)C(C)=C[C@@H]23)[C@H]2C(C)(C)[C@]12OC(C)=O [TPA, 12-0-tetradecanoyl-phorbol-13-acetate]
effect on SV40 gene amplification [2]: increase the SV40 gene amplification

COc1cccc2c1C(=O)c1c(O)c3c(c(O)c1C2=O)C[C@@](O)(C(=O)CO)C[C@@H]3O[C@H]1C[C@H](N)[C@H](O)[C@H](C)O1 [adriamycin]
sensitivity of cells after long term treatment with staged increase in concentration ([3]; 20 ng/ml adriamycin, F46-WT, FIGS. 9, 13, 14): totally insensitive
sensitivity of cells after long term treatment with staged increase in concentration ([4]; 20 ng/ml adriamycin, K562-WT): totally insensitive
toxic effect on non-resistant cells ([4]; 20 ng/ml adriamycin, treatment time 4 days, K562-WT): severely toxic effect

C[C@]12CC[C@H]3[C@@H](CCC4=CC(=O)CC[C@@]43C)[C@@H]1CC[C@@H]2O [testosterone]
effect on the amplifying effect of methotrexate (MTX) ([2]; with S9-mix, FIG. 3): reduces the amplifying effect of methotrexate (MTX)
effect on the amplifying effect of amino-6-mercaptopurine (AMP) ([2]; without S9-mix, FIG. 3): increases the amplifying effect of amino-6-mercaptopurine (AMP)

Source: patent US6589941B1 (priority 1995, dated 2003)
